Data: PubChem BioAssay AID1117347 (Cheminformatics & Chemogenomics Research Group (CCRG), …, 2015)
The source made the active and inactive calls. No rule for the calls is given here.

test system: HeLa cell count decrease; experiment: decrease in HeLa cell numbers, dose-response curve, cell enumeration, 50% inhibitory concentration (AID 1117347)

Compound	IC50
O=[N+]([O-])c1ccc(Oc2ccc(N=C=S)cc2)cc1	> 10 µM (inactive)
C1CN(P2(N3CC3)=NP(N3CC3)(N3CC3)=NP(N3CC3)(N3CC3)=N2)CCO1 (stereo not drawn)	> 10 µM (inactive)
CC[C@H]1CN2CCc3cc(OC)c(OC)cc3[C@@H]2C[C@@H]1C[C@H]1NCCc2cc(OC)c(OC)cc21	0.0327 µM
COc1cc(-c2ccc(=O)[nH]n2)ccc1OC(F)F	0.0092 µM
CCCCC1C(=O)N(c2ccccc2)N(c2ccc(O)cc2)C1=O (stereo not drawn)	1.66 µM
Cc1ccc2nc(N)[nH]c(=O)c2c1Sc1ccncc1	> 10 µM (inactive)
N[C@@H](Cc1ccc(N(CCCl)CCCl)cc1)C(=O)O	0.39 µM
O=C(O)CCc1nc2ccccc2[nH]1	> 10 µM (inactive)
C[C@@]12C(=O)OC(=O)[C@]1(C)C1CCC2O1	1.01 µM
CCCCCCCCCCCC(=O)[O][Sn]([CH2]CCC)([CH2]CCC)[O]C(=O)CCCCCCCCCCC	> 10 µM (inactive)
O=C(c1cc(O)c(O)c(O)c1)c1ccc(O)c(O)c1O	> 10 µM (inactive)
NC(N)=NN=C(/C=C/c1ccc([N+](=O)[O-])o1)/C=C/c1ccc([N+](=O)[O-])o1	> 10 µM (inactive)
CC(C)n1c(/C=C/[C@@H](O)C[C@@H](O)CC(=O)O)c(-c2ccc(F)cc2)c2ccccc21	> 10 µM (inactive)
Cc1ccc2c(c1)c1c3n2CCNC3CCC1 (stereo not drawn)	> 10 µM (inactive)
COC(=O)Nc1nc2ccc(Sc3ccccc3)cc2[nH]1	0.0097 µM
NCCCC[C@H](N[C@@H](CCc1ccccc1)C(=O)O)C(=O)N1CCC[C@H]1C(=O)O	> 10 µM (inactive)
COc1cc2c(c(OC)c1OC)-c1ccc(OC)c(=O)cc1[C@@H](NC(C)=O)CC2	0.00188 µM
COCCOC(=O)C1=C(C)NC(C)=C(C(=O)OC/C=C/c2ccccc2)C1c1cccc([N+](=O)[O-])c1 (stereo not drawn)	> 10 µM (inactive)
O=C1C(=O)c2ccccc2C(O)=C1C1CCC(c2ccc(Cl)cc2)CC1 (stereo not drawn)	> 10 µM (inactive)
O=C1C(I)=CC(=C(c2cc(I)c(O)c(I)c2)c2ccccc2C(=O)O)C=C1I	> 10 µM (inactive)
CCCCCCCCCCCCCC[N+](C)(C)C	3.32 µM
COc1cc(NCc2ccc3nc(N)nc(N)c3c2C)cc(OC)c1OC	3.81 µM
Nc1nc(=O)n([C@@H]2O[C@H](CO)[C@@H](O)[C@@H]2F)cc1I	8.5 µM (inactive)
CCCCCCCCCCCC[N+](C)(C)Cc1ccccc1	> 10 µM (inactive)

Compound	IC50
CC(C)OC(=O)OCOP(=O)(CO[C@H](C)Cn1cnc2c(N)ncnc21)OCOC(=O)OC(C)C	0.289 µM
CCCCCCCCCCCCCCCC[n+]1ccccc1	0.405 µM
CCc1oc2ccccc2c1C(=O)c1cc(I)c(O)c(I)c1	> 10 µM (inactive)
CN1CCC(Nc2ncc3ncnc(Nc4ccc(F)c(Cl)c4)c3n2)CC1	> 10 µM (inactive)
O=C1C2CC=CCC2C(=O)N1SC(Cl)(Cl)Cl (stereo not drawn)	1.79 µM
CCN(CC)CCOc1ccc(/C(=C(\Cl)c2ccccc2)c2ccccc2)cc1	> 10 µM (inactive)
CCCCCCCCCCCCCCCC[N+](C)(C)CCN(Cc1ccc(OC)cc1)c1ncccn1	0.349 µM
CN1CC[C@H](c2c(O)cc(O)c3c(=O)cc(-c4ccccc4Cl)oc23)[C@H](O)C1	0.0212 µM
CC[C@@H]([C@H](C)O)n1ncn(-c2ccc(N3CCN(c4ccc(OC[C@@H]5CO[C@@](Cn6cncn6)(c6ccc(F)cc6F)C5)cc4)CC3)cc2)c1=O	> 10 µM (inactive)
CC(=O)N(O)CCCCCNC(=O)CCC(=O)N(O)CCCCCNC(=O)CCC(=O)N(O)CCCCCN	> 10 µM (inactive)
O=C(CCl)c1ccc(Cl)cc1Cl	0.35 µM
CC(=O)O[C@@]12CO[C@@H]1C[C@H](O)[C@@]1(C)C(=O)[C@H](O)C3=C(C)[C@@H](OC(=O)[C@H](O)[C@@H](NC(=O)OC(C)(C)C)c4ccccc4)C[C@@](O)([C@@H](OC(=O)c4ccccc4)[C@H]21)C3(C)C	0.001 µM
C[n+]1c2cc(N)ccc2cc2ccc(N)cc21 (tested in a mixture with another compound)	0.472 µM
Cc1ccccc1C(=O)Nc1ccc(C(=O)N2CCCC(N(C)C)c3ccccc32)cc1 (stereo not drawn)	2.91 µM
C[C@]12CC[C@@H]3c4ccc(O)cc4CC[C@H]3[C@@H]1CC[C@@H]2OC(=O)CCC1CCCC1	> 10 µM (inactive)
O=C(CCBr)N1CCN(C(=O)CCBr)CC1	> 10 µM (inactive)
CCCCCCCCCCCCCCCCNc1ccc(C(=O)O)cc1	> 10 µM (inactive)
CC[C@]1(O)C[C@H]2CN(CCc3c([nH]c4ccccc34)[C@@](C(=O)OC)(c3cc4c(cc3OC)N(C=O)[C@H]3[C@@](O)(C(=O)OC)[C@H](OC(C)=O)[C@]5(CC)C=CCN6CC[C@]43[C@@H]65)C2)C1	0.0065 µM
Nc1nc(F)nc2c1ncn2[C@@H]1O[C@H](CO)[C@@H](O)[C@@H]1O	> 10 µM (inactive)
CN1CCCC(CC2c3ccccc3Sc3ccccc32)C1 (stereo not drawn)	> 10 µM (inactive)
Cc1cc(C2CCCCC2)n(O)c(=O)c1	0.569 µM
CCN1/C(=C/C=C/c2sc3ccccc3[n+]2CC)Sc2ccccc21	0.036 µM
CCCCOC(=O)c1ccc(N)cc1	> 10 µM (inactive)
CN(C)CCOC(c1ccccc1)c1ccc(Br)cc1 (stereo not drawn)	> 10 µM (inactive)

Compound	IC50
CC(=O)Oc1ccccc1C(=O)Nc1ncc([N+](=O)[O-])s1	> 10 µM (inactive)
Nc1nc(Cl)nc2c1ncn2[C@@H]1O[C@H](CO)[C@@H](O)[C@@H]1F	0.00516 µM
O=C1c2c(O)ccc(O)c2C(=O)c2c(NCCNCCO)ccc(NCCNCCO)c21	0.0031 µM
Cc1nc(Nc2ncc(C(=O)Nc3c(C)cccc3Cl)s2)cc(N2CCN(CCO)CC2)n1	0.875 µM
Cc1cc(O)c2ccccc2c1O	2.46 µM
O=C(NOCC1CC1)c1ccc(F)c(F)c1Nc1ccc(I)cc1Cl	> 10 µM (inactive)
O[C@@H](CNC[C@H](O)[C@H]1CCc2cc(F)ccc2O1)[C@@H]1CCc2cc(F)ccc2O1	5.56 µM (inactive)
CC(C)=CCC/C(C)=C/CC/C(C)=C/C(=O)OCC(=O)[C@@]1(O)CC[C@H]2[C@@H]3CCC4=CC(=O)C=C[C@]4(C)[C@H]3[C@@H](O)C[C@@]21C	0.0595 µM
CN(C)CCC=C1c2ccccc2CCc2ccccc21	> 10 µM (inactive)
CO[C@@H]1[C@@H](OC)[C@H](C)[C@@](O)(CC(=O)O)O[C@H]1[C@H](C)[C@H]1O[C@@]2(CC[C@@](C)([C@H]3CC[C@@](C)([C@@H]4O[C@@H]([C@H]5O[C@](C)(O)[C@H](C)C[C@@H]5C)C[C@@H]4OC4C[C@H](OC)[C@@H](OC)[C@H](C)O4)O3)O2)C[C@H](O)[C@H]1C (stereo partly drawn)	2.75 µM
CCCCCCCCCCCCCCCC[N+](C)(C)Cc1ccccc1	> 10 µM (inactive)
COc1ccc(-c2ccc3cc(C(=O)O)ccc3c2)cc1C12CC3CC(CC(C3)C1)C2	5.49 µM (inactive)
CCN(CC)CCOc1ccccc1C(=O)CCc1ccccc1	> 10 µM (inactive)
CCC(COC(=O)c1cc(OC)c(OC)c(OC)c1)(c1ccccc1)N(C)C (stereo not drawn)	> 10 µM (inactive)
CC(C)(C)C(=O)OCOP(=O)(COCCn1cnc2c(N)ncnc21)OCOC(=O)C(C)(C)C	0.134 µM
CC(CC1c2ccccc2CCc2ccccc21)CN(C)C (stereo not drawn)	> 10 µM (inactive)
COC(=O)Nc1nc2ccc(C(=O)c3ccccc3)cc2[nH]1	0.0542 µM
COC(=O)[C@H]1[C@H]2C[C@@H]3c4[nH]c5cc(OC)ccc5c4CCN3C[C@H]2C[C@@H](OC(=O)/C=C/c2ccc(O)c(OC)c2)[C@@H]1OC	> 10 µM (inactive)
CC(C)c1c(C(=O)Nc2ccccc2)c(-c2ccccc2)c(-c2ccc(F)cc2)n1CC[C@@H](O)C[C@@H](O)CC(=O)O	> 10 µM (inactive)
COc1cccc2c1C(=O)c1c(O)c3c(c(O)c1C2=O)C[C@@](O)(C(=O)CO)CC3OC1CC(N2CCOC(OC)C2)C(O)C(C)O1 (stereo partly drawn)	0.00468 µM
Oc1c(Cl)cc(Cl)cc1Sc1cc(Cl)cc(Cl)c1O	> 10 µM (inactive)
C=C(C)[C@H]1Cc2c(ccc3c2O[C@@H]2COc4cc(OC)c(OC)cc4[C@@H]2C3=O)O1	0.153 µM
CCCCC(CC)CN=C(N)NC(N)=NCCCCCCN=C(N)NC(N)=NCC(CC)CCCC (stereo not drawn)	0.0186 µM
CC(=O)Oc1ccc(C2(c3ccc(OC(C)=O)cc3)Oc3ccccc3NC2=O)cc1	5.75 µM (inactive)

Compound	IC50
COC(=O)Nc1nc2ccc(S(=O)c3ccccc3)cc2[nH]1 (stereo not drawn)	0.258 µM
COc1ccc(Cc2nccc3cc(OC)c(OC)cc23)cc1OC	> 10 µM (inactive)
C=CC(=O)Nc1cc2c(Nc3ccc(F)c(Cl)c3)ncnc2cc1OCCCN1CCOCC1	2.09 µM
Cc1nc(N)nc(N)c1-c1ccc(Cl)c(Cl)c1	1.01 µM
CCc1oc2ccccc2c1C(=O)c1cc(Br)c(O)c(Br)c1	> 10 µM (inactive)
COc1ccc(/C=C/C(=O)c2ccc(OC)cc2OC)cc1	0.708 µM
COC(=O)Nc1nc2ccc(C(=O)C3CC3)cc2[nH]1	0.297 µM
COc1ccc(-c2nc3ccc(C4=NNC(=O)CC4C)cc3[nH]2)cc1 (stereo not drawn)	7.23 µM (inactive)
CCCN(CCC)C(=O)C(CCC(=O)OCCCN1CCN(CCOC(=O)Cc2c(C)n(C(=O)c3ccc(Cl)cc3)c3ccc(OC)cc23)CC1)NC(=O)c1ccccc1 (stereo not drawn)	5.48 µM (inactive)
O=C(O)CCCc1ccc(N(CCCl)CCCl)cc1	> 10 µM (inactive)
Cc1cc(N)c2ccccc2[n+]1CCCCCCCCCC[n+]1c(C)cc(N)c2ccccc21	> 10 µM (inactive)
Cc1nc2ccc(CN(C)c3ccc(C(=O)N[C@@H](CCC(=O)O)C(=O)O)s3)cc2c(=O)[nH]1	> 10 µM (inactive)
Oc1c(I)cc(I)c2cccnc12	> 10 µM (inactive)
CCOc1ccc2nc3cc(N)ccc3c(N)c2c1	2.11 µM
CCCCCCC[N+](CC)(CC)CCCCc1ccc(Cl)cc1	> 10 µM (inactive)
CC[n+]1c(-c2ccccc2)c2cc(N)ccc2c2ccc(N)cc21	> 10 µM (inactive)
Nc1nc(=S)c2[nH]cnc2[nH]1	> 10 µM (inactive)
O=c1[nH]c(=O)n([C@H]2C[C@H](O)[C@@H](CO)O2)cc1F	> 10 µM (inactive)
CCCNCC(O)COc1ccccc1C(=O)CCc1ccccc1 (stereo not drawn)	> 10 µM (inactive)
CC(=O)[C@]1(O)Cc2c(O)c3c(c(O)c2[C@@H](O[C@H]2C[C@H](N)[C@H](O)[C@H](C)O2)C1)C(=O)c1ccccc1C3=O	0.0142 µM
COc1cccc2c1C(=O)c1c(O)c3c(c(O)c1C2=O)C[C@@](O)(C(C)=O)C[C@@H]3O[C@H]1C[C@H](N)[C@H](O)[C@H](C)O1	0.00805 µM
